How the values were obtained:
Experiment in all cases: relative viability (nuclei count vs DMSO), 5 days (fraction); higher = more cells survive
[1] = system: HOP-62
In short: (§1)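 Relative viability is defined as nuclei in treated wells over nuclei in vehicle wells. Duplicate plates were run and medians reported. Lung cancer cell lines in 1536-well plates were dosed by pin tool one day after seeding, with one drug or with a fixed anchor-drug dose plus five library-drug doses (not always all listed) in √10 steps, and nuclei were counted after 5 days.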

[2] = system: CAL-12T
In short: as §1

[3] = system: NCI-H1755
In short: as §1

[4] = system: NCI-H1651
In short: as §1

[5] = system: 201T
In short: as §1

[6] = system: NCI-H2087
In short: as §1

[7] = system: EMC-BAC-2
In short: as §1

[8] = system: LK-2
In short: as §1

[9] = system: NCI-H3122
In short: as §1

[10] = system: NCI-H2126
In short: as §1

[11] = system: PC-14
In short: as §1

[12] = system: LXF-289; settings: first compound 5 µM
In short: as §1

O=C(O)CCCCC(CCSCc1ccccc1)SCc1ccccc1 (stereo unspecified) [CPI-613] + CCNC(=O)c1noc(-c2cc(C(C)C)c(O)cc2O)c1-c1ccc(CN2CCOCC2)cc1 [Luminespib] (partner 0.01 µM)
relative viability ([1]; first compound 5 µM): 0.882 | relative viability ([1]; first compound 15.81 µM): 0.944 | relative viability ([1]; first compound 50 µM): 0.894 | relative viability ([1]; first compound 158.11 µM): 0.627 | relative viability ([1]; first compound 500 µM): 0.607 | relative viability ([2]; first compound 5 µM): 0.349 | relative viability ([2]; first compound 15.81 µM): 0.325 | relative viability ([2]; first compound 50 µM): 0.377 | relative viability ([2]; first compound 158.11 µM): 0.0292 | relative viability ([2]; first compound 500 µM): 0.0074 | relative viability ([3]; first compound 5 µM): 0.613 | relative viability ([3]; first compound 15.81 µM): 0.508 | relative viability ([3]; first compound 50 µM): 0.24 | relative viability ([3]; first compound 158.11 µM): 0.34 | relative viability ([3]; first compound 500 µM): 0.185 | relative viability ([4]; first compound 5 µM): 0.867 | relative viability ([4]; first compound 15.81 µM): 0.932 | relative viability ([4]; first compound 50 µM): 0.841 | relative viability ([4]; first compound 158.11 µM): 0.185 | relative viability ([4]; first compound 500 µM): 0.118 | relative viability ([5]; first compound 5 µM): 1.05 | relative viability ([5]; first compound 15.81 µM): 0.973 | relative viability ([5]; first compound 50 µM): 1.01 | relative viability ([5]; first compound 158.11 µM): 0.258 | relative viability ([5]; first compound 500 µM): 0.0468 | relative viability ([6]; first compound 5 µM): 0.182 | relative viability ([6]; first compound 15.81 µM): 0.165 | relative viability ([6]; first compound 50 µM): 0.155 | relative viability ([6]; first compound 158.11 µM): 0.0422 | relative viability ([6]; first compound 500 µM): 0.026 | relative viability ([7]; first compound 5 µM): 1.15 | relative viability ([7]; first compound 15.81 µM): 1.08 | relative viability ([7]; first compound 50 µM): 1.16 | relative viability ([7]; first compound 158.11 µM): 0.396 | relative viability ([7]; first compound 500 µM): 0.0424 | relative viability ([8]; first compound 5 µM): 0.19 | relative viability ([8]; first compound 15.81 µM): 0.198 | relative viability ([8]; first compound 50 µM): 0.189 | relative viability ([8]; first compound 158.11 µM): 0.153 | relative viability ([8]; first compound 500 µM): 0.172 | relative viability ([9]; first compound 5 µM): 0.0787 | relative viability ([9]; first compound 15.81 µM): 0.088 | relative viability ([9]; first compound 50 µM): 0.0889 | relative viability ([9]; first compound 158.11 µM): 0.0798 | relative viability ([9]; first compound 500 µM): 0.0712 | relative viability ([10]; first compound 5 µM): 0.906 | relative viability ([10]; first compound 15.81 µM): 0.83 | relative viability ([10]; first compound 50 µM): 0.85 | relative viability ([10]; first compound 158.11 µM): 0.223 | relative viability ([10]; first compound 500 µM): 0.053 | relative viability ([11]; first compound 5 µM): 0.158 | relative viability ([11]; first compound 15.81 µM): 0.185 | relative viability ([11]; first compound 50 µM): 0.167 | relative viability ([11]; first compound 158.11 µM): 0.129 | relative viability ([11]; first compound 500 µM): 0.0407 | relative viability [12]: 0.611
